Laboratory results reported in US9603829B2, “HSP90 inhibitors with modified toxicity” (THE REGENTS OF THE UNIVERSITY OF COLORADO, a body corporate, priority 2011, dated 2017).
Read-outs that look alike come from different tables or passages of the source. Values belong to the molecule of their own block, whether it stands above or below them.

Columns and labels:
SHSY-5Y cells = assay: MTT growth inhibition assay in SHSY-5Y dopaminergic cells; format: cell-based, human; settings: read-out: SHSY-5Y IC50
Description: The 19-substituted benzoquinone ansamycins were also tested in vitro for their ability to reduce the toxicity of BQAs to SH-SY5Y cells a dopaminergic model system of relevance to neurodegenerative disease. Referring to FIG. 9, toxicity of BQAs in SH-SY-5Y cells was measured using trypan blue exclusion (panel A), MTT growth inhibition assay (panel B) and annexin V/PI staining for apoptosis (panel C). Cells in A and C were treated with BQAs (5 μM) for 16 h; cells in B were treated with BQAs for 4 h then allowed to grow in drug-free medium for 72 h. […] The combination of these two properties are likely to be important to the neuroprotective properties of the 19-substituted BQAs.
Growth inhibition assays (MTT) were conducted in human SHSY-5Y cells following a 4 hr treatment with GA or 19Me-GA. Cell were allowed to grow for 72 hrs following drug treatment. The 19-methyl substituted compounds in all series were minimally toxic (see FIG. 12 for data with geldanamycin, MTT assay, results are expressed as the mean±SD, n=3).

[1] = test system: MDA468/NQ16 breast cancer cells; assay: MTT growth inhibition in isogenic MDA468/NQ16 and MDA468 cells; format: cell-based, human; settings: NQO1-rich vs NQO1-null isogenic cells
Description: The 19-substituted benzoquinone ansamycins were also tested in vitro for their ability to inhibit growth similar to DMAG in human breast cancer cells (FIG. 10). MDA468/NQ16 breast cancer cells were treated with 19-substituted DMAG analogs for 4 hours, after which drug-containing media was removed and cells were allowed to grow for an additional 72 h. Cell viability was determined using the MTT assay.
(§1) The ability of 19-substituted BQAs to induce growth inhibition was measured by MTT in isogenic MDA468 (null NQO1) and MDA468/NQ16 (high NQO1) cells. […] Biomarkers of Hsp90 inhibition (Raf-1, AKT degradation and Hsp70 induction) were more pronounced in MDA468/NQ16 cells compared to MDA468 cells following treatment with 19-substituted DMAG analogs.

[2] = test system: Hsp90 (Raf-1, AKT degradation and Hsp70 induction); assay: Biomarkers of Hsp90 inhibition in MDA468/NQ16 cells; format: cell-based, human
Description: as §1

[3] = Phase I / phase 1 clinical trials; cited from earlier work
[4] = Glutathione conjugation of benzoquinone ansamycins (HPLC, LC-MS); format: in vitro ADME; settings: 50 μM BA, pH 7.4, room temperature
Description: BA-GSH conjugate formation was analyzed by HPLC at 270 nm and further confirmed by LC-MS.

[5] = test system: MiaPaCa2 human pancreatic cancer cells; assay: MTT growth inhibition in MiaPaCa2 cells; format: cell-based; settings: 4 hr treatment, then 72 h growth, MTT, read-out: IC50 MiaPaCa2
Description: (§2) The inventors also examined the ability of 19 BQAs to inhibit the growth of human pancreatic cancer cell lines (FIG. 16). For growth inhibition studies (MTT) cells were treated with drugs for 4 hr and then allowed to grow for 72 h. For biomarker studies MiaPaCa2 cells were treated with DMAG analogs (5 μM) for 24 hr. 19 BQAs inhibit the growth of human pancreatic cancer cell lines (FIG. 16A, 16B) and induce biomarkers of Hsp90 inhibition (FIG. 16C) using isogenic Panc-1 (NQO1 null) and Panc-1/C5 (NQO1 expressing) cell lines.

[6] = test system: primary mouse hepatocytes; assay: Hepatotoxicity in primary mouse hepatocytes (MTT); format: cell-based; settings: 4 hr, confirmed by Trypan Blue and AST leakage
Description: The inventors next tested the effect of 19-substitution of BQAs on hepatotoxicity in isolated hepatocyte systems. Isolated primary mouse hepatocytes were grown on coated 96-well plates and exposed to BQAs for 4 h after which their survival was determined using the MTT assay.
As described above, a major obstacle in the development of BQA as drugs has been their ability to induce hepatotoxicity in preclinical studies. […] Toxicity was measured using MTT assay and confirmed using Trypan Blue and AST leakage. The data shown in FIG. 19 were generated using MTT analysis but similar readouts were obtained using either trypan blue exclusion or leakage of AST from hepatocytes.

[7] = test system: BT474 human breast cancer cells; assay: MTT growth inhibition in BT474 cells; format: cell-based; settings: BT474, 4 hr treatment, MTT 72 h later
Description: (§3) The inventors extended the studies with 19-substituted DMAG analogs to include the Her2^+ human breast cancer cell line BT474 (FIG. 15). Growth inhibition (FIG. 15, left panel) was measured in BT474 cells following treatment with analogs for 4 hr. Growth inhibition (MTT) was performed 72 h following drug treatments. Biomarkers of Hsp90 inhibition, Raf-1, AKT, CDK4 and Her2 degradation as well as Hsp70 induction were measured by immunoblot analysis in human BT474 breast cancer cells following treatment with 19-substituted DMAG analogs (5 μM) for 24 hr ([…], left panel).

[8] = test system: Hsp90 (Raf-1, AKT, CDK4, Her2 degradation, Hsp70 induction); assay: Immunoblot biomarkers of Hsp90 inhibition in BT474 cells; format: cell-based, human
Description: as §3

[9] = test system: human pancreatic cancer cell lines (Panc-1, Panc-1/C5); assay: MTT growth inhibition in human pancreatic cancer cell lines; format: cell-based; settings: human pancreatic cancer cell lines, 4 hr treatment, 72 h growth, MTT (FIG. 16A)
Description: as §2

Hsp90 = assay: Biomarkers of Hsp90 inhibition in MiaPaCa2 cells; format: cell-based, human; settings: 5 μM, 24 hr (FIG. 16C)
Description: as §2

p23/Hsp90 interaction = assay: Immunoprecipitation of p23 and Hsp90 in BT474 cells; format: cell-based, human; settings: 5 μM, 24 hr
Description: Forward and reverse immunoprecipitation studies were performed in BT474 cells treated with DMAG analogs (5 μM) for 24 hr.

cdc37/Hsp90 interaction = assay: Immunoprecipitation of cdc37 with Hsp90 in BT474 and MDA468/NQ16 cells; format: cell-based, human; settings: 5 μM, 24 hr
Description: Similarly, the association of cdc37 with hsp90 was examined in BT474 cells and MDA468/NQ16 cells by immunoprecipitation following treated with analogs (5 μM) for 24 hr. […] This finding is consistent with X ray data using purified Hsp90 showing that the larger 19-phenyl substituent causes greater conformational change in the Hsp90 structure than smaller 19-substituents (not shown). This also correlates with the differential effect of 19-phenyl and 19-methyl DMAG on clients chaperoned by cdc37 to Hsp90 which include Raf1, Akt, cdc2 and cdk4 (FIGS. 8,9,10).

[10] = 4 hr treatment, then 72 hrs growth, MTT
[11] = Homo sapiens, SH-SY5Y, 4 hr treatment, then 72 hrs growth, MTT

SMILES: C=CCNC1=C2C[C@@H](C)C[C@H](OC)[C@H](O)[C@@H](C)/C=C(\C)[C@H](OC(N)=O)[C@@H](OC)/C=C\C=C(/C)C(=O)NC(=CC1=O)C2=O [17AAG, 17-demethoxy-17-(2-propenylamino)-geldanamycin, reference compound]
IC50 (SHSY-5Y cells; [10]): 16.2 µM | decrease in IC50 in MDA468/NQ16 cells compared to MDA468 cells [1]: greater than 66 fold | effect on markers of Hsp90 inhibition (Hsp70 induction and Raf-1 degradation) in MDA468/NQ16 compared to MDA468 cells [2]: greater effect on markers of Hsp90 inhibition | hepatotoxicity / toxicity in clinical trials [3]: dose-limiting toxicity

SMILES: CO[C@H]1/C=C\C=C(/C)C(=O)NC2=CC(=O)C(NCCN3CCCC3)=C(C[C@@H](C)C[C@H](OC)[C@H](O)[C@@H](C)/C=C(\C)[C@@H]1OC(N)=O)C2=O [17AEP-GA, 17-demethoxy-17-[[2-(pyrrolidin-1-yl)ethyl]amino]-geldanamycin]
fraction conjugated with glutathione ([4]; 5 mM glutathione, within 10 h): about 90%

SMILES: C=CCNC1=C2C[C@@H](C)C[C@H](OC)[C@H](O)[C@@H](C)/C=C(\C)[C@H](OC(N)=O)[C@@H](OC)/C=C\C=C(/C)C(=O)NC(=C(C)C1=O)C2=O [19Me-17AAG, (4E,6Z,8S,9S,10E,12S,13R,14S,16R)-19-(Allylamino)-13-hydroxy-8,14-dimethoxy-4,10,12,16,21-pentamethyl-3,20,22-trioxo-2-azabicyclo[16.3.1]docosa-1(21),4,6,10,18-pentaen-9-yl carbamate]
IC50 (SHSY-5Y cells; Homo sapiens, SH-SY5Y): > 20 µM

IC50 (SHSY-5Y cells; [11]): > 20 µM | IC50 ([5]; Homo sapiens, MIA PaCa-2): 35.8 ± 5.5 µM
SMILES: CO[C@H]1/C=C\C=C(/C)C(=O)NC2=C(C)C(=O)C(NCCN(C)C)=C(C[C@@H](C)C[C@H](OC)[C@H](O)[C@@H](C)/C=C(\C)[C@@H]1OC(N)=O)C2=O [19Me-DMAG, (4E,6Z,8S,9S,10E,12S,13R,14S,16R)-19-(2-(Dimethylamino)ethylamino)-13-hydroxy-8,14-dimethoxy-4,10,12,16,21-pentamethyl-3,20,22-trioxo-2-azabicyclo[16.3.1]docosa-1(21),4,6,10,18-pentaen-9-yl carbamate]
hepatotoxicity [6]: no toxicity was observed | growth inhibition [7]: no growth inhibition could be observed | Hsp70 induction ([8]; BT474, 5 μM, 24 hr, immunoblot): robust Hsp70 response | effects on Hsp90 client proteins (Raf-1, AKT, Her2, CDK4) ([8]; BT474, 5 μM, 24 hr, immunoblot): diminished effects on Hsp90 client proteins | effects on clients chaperoned by cdc37 to Hsp90 (Raf1, Akt, cdc2, cdk4) ([8]; cell line not given): had little effect | Hsp70 induction ([2]; MDA468/NQ16 (high NQO1) cells): equivalent Hsp70 response to 19-phenyl DMAG | Raf-1 and AKT degradation ([2]; MDA468/NQ16 (high NQO1) cells): much less pronounced effect on Hsp90 Raf1 and Akt | growth inhibitory activity [9]: little effect | induction of biomarkers of Hsp90 inhibition (Hsp90): little effect | interaction of p23 and Hsp90 (p23/Hsp90 interaction): disrupted the interaction of p23 and Hsp90 | interaction of cdc37 with Hsp90 (cdc37/Hsp90 interaction): had little effect

SMILES: COC1=C2C[C@@H](C)C[C@H](OC)[C@H](O)[C@@H](C)/C=C(\C)[C@H](OC(N)=O)[C@@H](OC)/C=C\C=C(/C)C(=O)NC(=C(C)C1=O)C2=O [19Me-GA, (4E,6Z,8S,9S,10E,12S,13R,14S,16R)-13-Hydroxy-8,14,19-trimethoxy-,10,12,16,21-pentamethyl-3,20,22-trioxo-2-azabicyclo[16.3.1]docosa-1(21),4,6,10,18-pentaen-9-yl carbamate]
IC50 (SHSY-5Y cells; Homo sapiens, SH-SY5Y): > 10 µM

SMILES: C=CCNC1=C2C[C@@H](C)C[C@H](OC)[C@H](O)[C@@H](C)/C=C(\C)[C@H](OC(N)=O)[C@@H](OC)/C=C\C=C(/C)C(=O)NC(=C(c3ccccc3)C1=O)C2=O [19Ph-17AAG, (4E,6Z,8S,9S,10E,12S,13R,14S,16R)-19-(Allylamino)-13-hydroxy-8,14-dimethoxy-4,10,12,16-tetramethyl-3,20,22-trioxo-21-phenyl-2-azabicyclo[16.3.1]docosa-1(21),4,6,10,18-pentaen-9-yl carbamate]
IC50 (SHSY-5Y cells; Homo sapiens, SH-SY5Y): > 20 µM

IC50 (SHSY-5Y cells; [10]): 9.4 µM | IC50 [5]: 0.13 ± 0.01 µM | 17-DMAG-SG conjugate formed ([4]; 5 mM reduced glutathione, within 4 h): approximately 47 μM
SMILES: CO[C@H]1/C=C\C=C(/C)C(=O)NC2=CC(=O)C(NCCN(C)C)=C(C[C@@H](C)C[C@H](OC)[C@H](O)[C@@H](C)/C=C(\C)[C@@H]1OC(N)=O)C2=O [DMAG, 17-demethoxy-17-[[2-(dimethylamino)ethyl]amino]-geldanamycin, reference compound]
hepatotoxicity [6]: significant hepatotoxicity | hepatotoxicity / toxicity in clinical trials [3]: significant toxicities

IC50 (SHSY-5Y cells; [11]): 0.133 µM
SMILES: COC1=C2C[C@@H](C)C[C@H](OC)[C@H](O)[C@@H](C)/C=C(\C)[C@H](OC(N)=O)[C@@H](OC)/C=C\C=C(/C)C(=O)NC(=CC1=O)C2=O [GA, geldanamycin, reference compound]
hepatotoxicity / toxicity in clinical trials [3]: unacceptable hepatotoxicity
